Patent US12618847B2 (Purdue Research Foundation, priority 2020, dated 2026)
Where no end group is shown, it is not given here. [ ]: non-standard residue; d: D form. Phe(4-Cl) = N[C@@H](Cc1ccc(Cl)cc1)C(=O)O

Experiments:
SK-MEL-2 = assay: TAS2 rate of hydrolysis in live cells; assay type: cell-based; details: SK-MEL-2, TAS2 10 μM, 5,000 cells/well
Method: (§1) To compare these cells lines, each was plated at the same density of 5,000 cells/well in a black 96 well plate—for adherent cells lines A498, SK-MEL-2, MEL-92.1, SH-SY5Y and HEK293T, the cells were allowed to adhere overnight before using in the assay; MM.1R cells were plated and used directly after. Samples were incubated with either DMSO or TAS2 (10 μM) for 15 min, washed with PBS three times before putting the plate in a microplate reader to record the fluorescence intensity over 90 min. The experiment was performed in technical triplicate and experimental duplicate for each cell line and the rate of hydrolysis of TAS-2 was determined, Table 2.

SH-SY5Y = assay: TAS2 rate of hydrolysis in live cells; assay type: cell-based; details: TAS2 10 μM, 5,000 cells/well
Method: as §1

MEL-92.1 = assay: TAS2 rate of hydrolysis in live cells; assay type: cell-based; details: MEL-92.1, TAS2 10 μM, 5,000 cells/well
Method: as §1

A498 = assay: TAS2 rate of hydrolysis in live cells; assay type: cell-based; details: A498, TAS2 10 μM, 5,000 cells/well
Method: as §1

HEK-293T = assay: TAS2 rate of hydrolysis in live cells; assay type: cell-based; details: TAS2 10 μM, 5,000 cells/well
Method: as §1

MM.1R = assay: TAS2 rate of hydrolysis in live cells; assay type: cell-based; details: TAS2 10 μM, 5,000 cells/well
Method: as §1

20S CP = 20S CP (Homo sapiens, UniProt P20618+P28074); assay: Fluorescence hydrolysis of probes by purified 20S CP (plate reader); assay type: biochemical; details: 30 μM probe
Method: The peptide recognition sequence used was based on the commercially available 4-mer AMC probe (FIG. 1A), specifically Leu-Leu-Val-Tyr (SEQ ID NO: 1), to generate TAS1 (FIG. 1B). To determine if TAS1 had any enhanced sensitivity, the two probes were compared under the same conditions with purified 20S CP. Briefly, the probes were incubated in triplicate at 10 and 30 μM with 9 nM […] at 37° C. The change in fluorescence was monitored for two hours and the endpoint values were averaged and graphed for comparison (FIG. 1C). Because the two fluorophores have different excitation and emission wavelengths, the two experiments were performed separately but using the same conditions for the plate reader (i.e. gain, number of flashes, settling time, etc.). […] Since, unlike Suc-LLVY-AMC (SEQ ID NO: 1), TAS1 has the potential to have more than one cleavage site which could result in an increase in fluorescence (on either side of Rh110), we confirmed that the increase in signal is only from the recognition and cleavage of the peptide at the Tyr moiety by analyzing the 30 μM TAS1 samples by LC/MS (FIG. 2).
With these new peptide sequences in hand, we returned to incorporating the Rh110-peptoid moiety and to compare the cleavage of TAS1-3 with the 20S CP. We incubated all three probes at various concentrations with 9 nM 20S CP and monitored the change in fluorescence using a microplate reader. […] In order to compare the three probes, we fit a linear regression for the points from 10-60 min for 30 μM of each probe to obtain a rate for the change in fluorescence (Table 1). Of the three, TAS1 was hydrolyzed the quickest, although the slope for TAS2 was similar. […] To confirm that the change in fluorescence was due to amide bond cleavage at the expected site on the peptide, we analyzed the samples at a concentration of 30 μM by LC/MS (FIG. 3).

A549 cells = assay: Probe cleavage in live A549 cells with or without MG-132 pretreatment; assay type: cell-based; details: 10 μM probe, 5,000 cells/well, 90 min
Method: We next sought to determine if the TAS probes would be suitable for cell-based assays. To accomplish this, A549 cells were plated at a density of 5,000 cells/well in a black 96 well plate with a black bottom. After allowing the cells to adhere to the plate, the samples were washed with PBS three times then dosed with 10 μM of each probe in modified KRBH buffer. The change in fluorescence was recorded on a microplate reader for 90 min. After allowing the signal to equilibrate for […], each sample was set to zero and the future time points were scaled accordingly. As was done with the biochemical data, a linear regression was fit to each set of data. From the slope, it is observed that the rate for TAS2 was the highest. To determine the in-cell selectivity, a set of samples pretreated with MG-132 (10 μM), a proteasome inhibitor, was included for each probe. These samples were pre-incubated with MG-132 in cell culture media for one hour before washing with PBS and dosing with each probe in modified KRBH buffer. […] To ensure this decrease was not a consequence of cell death, cells were treated in the same way and analyzed using Cell-Titer Glo.

## TAS2: Rh110-based peptide/peptoid hybrid probe with Phe(4-Cl) as Tyr substitute (LLV[Phe(4-Cl)]; also: Rh110-based probe, place not given here, peptide/peptoid hybrid)
SK-MEL-2
  Rate of Hydrolysis: 12.1 ± 1.3 ΔRFU/min
SH-SY5Y
  Rate of Hydrolysis: 5.8 ± 0.4 ΔRFU/min
MEL-92.1
  Rate of Hydrolysis: 16.4 ± 2.6 ΔRFU/min
A498
  Rate of Hydrolysis: 39.6 ± 4.8 ΔRFU/min
HEK-293T
  Rate of Hydrolysis: 6.7 ± 3.2 ΔRFU/min
MM.1R
  Rate of Hydrolysis: 81.6 ± 25.5 ΔRFU/min
20S CP; 9 nM purified 20S CP, linear regression 10-60 min
  Rate of Hydrolysis: 63.8 ΔRFU/min
20S CP; LC/MS
  Cleavage products after incubation with 20S CP (LC/MS): only produced the expected cleavage products
A549 cells
  Rate of probe cleavage in A549 cells (slope): highest
